# Assay results: patent publication US20060029544A1, “Receptor-binding cyclic peptides and methods of use” (The Regents of the University of California Office of …, priority 2004, published 2006)
# Tests used:
# A375M melanoma cell line [1] = test: Adhesion assay: [51Cr]-A375M cells to laminin; assay type: cell-based, human; conditions: 200 μM peptide
# Description: (§1) RGD peptides were plated at a maximum concentration of 200 μM and a minimum concentration of 2 nM. For each RGD peptide sequence, linear peptides (A), cyclic peptides (B), and 4-[^19F]-fluorobenzoyl cyclic peptides (C) were assayed. Each RGD peptide concentration was performed in quadruplicate and each experiment was repeated twice.
# (§2) Plastic 96-well plates (Falcon 3912; Becton Dickinson) were coated with 50 μl substrate (10 μg/ml laminin or 5 μg/ml vitronectin). The plates were incubated at 37° C. in an 8% CO2 atmosphere for 1 hour. Unbound protein was flicked off and the plates were washed with phosphate buffered saline (PBS) and blocked with bovine serum albumin (0.1% w/v BSA)/PBS/0.1% sodium azide) for 1 hour. The plates were then washed with PBS, placed on a bed of ice and 25 μl of peptide was added to the wells.
# (§3) Sodium [^51Cr] chromate was purchased from Amersham International, UK. The solution was made isotonic by the addition of 110 μl 10× Hanks buffered salt solution. 100 μl of this solution (3.7 MBq) was added to 5-10×10^6 cells in 500 μl of serum-containing growth medium. The suspension was incubated at 37° C. for 45 minutes with regular agitation to resuspend the cells. The cells were then washed and spun 3 times with serum-free E4 medium to remove any free [^51Cr]chromium. A trypan blue viability count was performed and the cells were diluted to the necessary volume in serum-free E4 medium (4×10^5 cells/ml).
# (§4) 25 μl (about 10,000 cells) were added to each quadruplicate well and the plates incubated at 37° C. in an 8% CO2 atmosphere for 1 hour. Unbound cells were flicked off and the plates were washed twice with PBS/BSA containing 1 mM CaCl2 and 0.5 mM MgCl2. The plates were dabbed dry and cut into individual wells. The radioactivity associated with each well was determined in a gamma counter (1261 Multigamma; Wallac, Sweden). Quadruplicate 25 μl samples of labeled cells were counted as 100% input values. To determine non-specific binding, the ability of cells to bind BSA-coated wells was also assessed. Data for these wells are referred to as background.
# The results were calculated as follows: [formula] [formula] NMR Spectroscopy of RGD Peptides
# The A375M and VUP melanoma cell lines were used with vitronectin and laminin as substrates. Peptides were titrated in 10-fold dilutions from 200 μM to 2 nM. All data were normalized to the absence of peptide, which corresponded to 100% adhesion. All titrations were performed in quadruplicate and each experiment was repeated at least twice.
# αvβ3 integrin = target: T1, αvβ3 integrin (Homo sapiens, UniProt P05106+P06756); test: ELISA: soluble αvβ3-mFc binding to immobilized 50 kDa fibronectin fragment in the presence of RGD peptides; conditions: 2 μM peptide
# T1 construct: chimeras comprising the extracellular domain of αvβ3, αvβ5, α5β1, and αIIbβ3 linked to the Fc domain of either mouse IgG; purchased Celltech plc (supplied, no catalogue number)
# T1 sequence (P06756 31-992 limits assumed): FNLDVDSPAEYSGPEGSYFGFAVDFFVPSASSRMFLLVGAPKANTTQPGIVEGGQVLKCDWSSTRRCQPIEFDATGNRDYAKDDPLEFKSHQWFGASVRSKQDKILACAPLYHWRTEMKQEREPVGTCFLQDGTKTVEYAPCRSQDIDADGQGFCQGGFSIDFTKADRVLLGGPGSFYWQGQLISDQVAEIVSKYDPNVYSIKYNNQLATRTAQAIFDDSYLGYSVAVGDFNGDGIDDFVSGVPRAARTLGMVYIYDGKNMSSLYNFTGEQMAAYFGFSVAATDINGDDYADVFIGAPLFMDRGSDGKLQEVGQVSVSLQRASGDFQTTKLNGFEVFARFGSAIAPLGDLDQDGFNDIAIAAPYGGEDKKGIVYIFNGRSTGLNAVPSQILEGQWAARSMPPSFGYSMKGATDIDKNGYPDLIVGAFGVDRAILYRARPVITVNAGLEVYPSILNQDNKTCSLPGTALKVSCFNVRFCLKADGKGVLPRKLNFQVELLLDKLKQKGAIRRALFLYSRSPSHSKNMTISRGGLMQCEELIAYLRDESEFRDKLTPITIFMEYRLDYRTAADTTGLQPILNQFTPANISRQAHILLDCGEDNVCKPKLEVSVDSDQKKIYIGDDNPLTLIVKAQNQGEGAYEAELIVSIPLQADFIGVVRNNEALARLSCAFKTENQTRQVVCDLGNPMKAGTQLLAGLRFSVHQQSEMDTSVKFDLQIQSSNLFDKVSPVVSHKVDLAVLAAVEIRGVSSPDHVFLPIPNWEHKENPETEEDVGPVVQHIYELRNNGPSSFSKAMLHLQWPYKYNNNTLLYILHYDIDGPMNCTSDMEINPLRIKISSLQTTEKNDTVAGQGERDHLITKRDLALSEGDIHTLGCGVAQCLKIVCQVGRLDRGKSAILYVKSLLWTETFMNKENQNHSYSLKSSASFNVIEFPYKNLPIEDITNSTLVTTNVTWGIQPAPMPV
# T1 sequence (P05106 27-718 limits assumed): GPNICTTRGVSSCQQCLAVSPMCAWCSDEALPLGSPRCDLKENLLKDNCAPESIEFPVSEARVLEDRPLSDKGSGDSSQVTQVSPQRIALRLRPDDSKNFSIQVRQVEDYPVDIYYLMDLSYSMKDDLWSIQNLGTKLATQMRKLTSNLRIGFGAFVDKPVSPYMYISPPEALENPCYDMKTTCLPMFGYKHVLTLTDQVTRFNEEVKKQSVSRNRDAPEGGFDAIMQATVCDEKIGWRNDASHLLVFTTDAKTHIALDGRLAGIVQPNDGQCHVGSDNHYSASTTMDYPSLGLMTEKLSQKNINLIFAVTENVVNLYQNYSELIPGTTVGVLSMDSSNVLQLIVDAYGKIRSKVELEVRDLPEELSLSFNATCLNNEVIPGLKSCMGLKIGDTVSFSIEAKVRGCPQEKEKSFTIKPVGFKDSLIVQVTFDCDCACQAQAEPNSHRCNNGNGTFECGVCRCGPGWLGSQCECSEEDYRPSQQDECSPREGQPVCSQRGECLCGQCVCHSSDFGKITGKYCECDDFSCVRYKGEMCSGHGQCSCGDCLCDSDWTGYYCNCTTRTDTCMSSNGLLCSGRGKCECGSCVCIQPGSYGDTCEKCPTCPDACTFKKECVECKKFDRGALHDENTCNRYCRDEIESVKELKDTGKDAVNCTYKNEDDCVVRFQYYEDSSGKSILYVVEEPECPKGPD
# Source text: Four different soluble integrins were supplied by Celltech plc. Soluble forms of αvβ3, αvβ5, α5β1, and αIIbβ3 integrin were generated by constructing chimeras comprising the extracellular domain of αvβ3, αvβ5, α5β1, and αIIbβ3 linked to the Fc domain of either mouse IgG (αvβ3-mFc, αvβ5-mFc, and αIIbβ3-mFc) or human IgG (α5β1-hFc) as described by Stephens et al., Cell Adhes. Commun., 7:377-390 (2000) and Coe et al., J. Biol. Chem., 276:35854-35866 (2001). Since the four soluble integrin chimeras were supplied either as purified proteins (αvβ3-mFc and α5β1-hFc) or as unpurified hybridoma supernatants (αIIbβ3-mFc and αvβ5-mFc), it was necessary to use two types of ELISAs. […] In one type of ELISA (FIGS. 2A and 2B), the immobilized component is a 50 kDa fragment of fibronectin. In the second type of ELISA (FIGS. 2C and 2D), the immobilized component is a goat anti-mFc antibody that is used to capture chimeric proteins so that the RGD binding site of the integrin is maximally exposed. Each three-sided box in FIG. 2 represents a single well of a 96-well plate, and the components are listed in the sequence of their addition to the assay. The immobilized component at the bottom of the well is bound to the well by electrostatic interactions.
# The plates were washed with PBS using a Denley Wellwash 4 Mk 2. Washing was repeated twice with a 400 μl wash per well. […] Plates were read using a plate spectrophotometer at 630 nm.
# Two negative and two positive controls were used in both types of ELISAs.
# FIGS. 3-6 illustrate the percent binding of the vitronectin, fibronectin, or fibrinogen ligand to αvβ5, α5β1, αIIbβ3, or αvβ3 integrin in the presence of RGD peptides (i.e., linear (A), cyclic (B), or 4-[^19F]-fluorobenzoyl cyclic (C)) at different concentrations, with 100% maximum signal being the signal obtained in the absence of the peptide.
# A375M melanoma cell line [2] = test: Adhesion assay: [51Cr]-A375M cells to vitronectin; assay type: cell-based, human; conditions: 20 μM peptide
# Description: as §1, §2
# (§5) Sodium [^51Cr] chromate was purchased from Amersham International, UK. […]
# (§6) 25 μl (about 10,000 cells) were added to each quadruplicate well and the plates incubated at 37° C. in an 8% CO2 atmosphere for 1 hour. […] The radioactivity associated with each well was determined in a gamma counter (1261 Multigamma; Wallac, Sweden). Quadruplicate 25 μl samples of labeled cells were counted as 100% input values. To determine non-specific binding, the ability of cells to bind BSA-coated wells was also assessed. […]
# (§7) The results were calculated as follows: [formula] […]
# VUP melanoma cell line [3] = test: Adhesion assay: [51Cr]-VUP cells to vitronectin; assay type: cell-based; conditions: 20 μM peptide
# Description: as §1, §2, §5, §6, §7
# VUP melanoma cell line [4] = test: Adhesion assay: [51Cr]-VUP cells to laminin; assay type: cell-based; conditions: highest concentration (200 μM)
# Description: as §1, §2, §3
# as §4, with “Data for these wells are referred to as background.” left out
# as §7
substance,measurement,setting,value
RGDY(OMe)K [B7],"adhesion of [51Cr]-A375M cells to laminin, normalized to absence of peptide (100%)",A375M melanoma cell line [1],50.40%±1.24%
same,"fibronectin binding to αvβ3, % of the maximum signal",αvβ3 integrin,6.6%
same,"adhesion of [51Cr]-A375M cells to vitronectin, normalized to absence of peptide (100%)",A375M melanoma cell line [2],72.79%±0.04%
same,"adhesion of [51Cr]-VUP cells to vitronectin, normalized to absence of peptide (100%)",VUP melanoma cell line [3],44.16%±1.71%
same,"adhesion of [51Cr]-VUP cells to laminin, normalized to absence of peptide (100%)",VUP melanoma cell line [4],46.89%±1.45%
